Data reported in PubChem BioAssay (NCI).
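Assay format: 96-well plates, 48-hour exposure. Here, GI50 denotes the concentration required for 50% inhibition of growth. TGI denotes the concentration required for complete inhibition of growth.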

How the values were obtained:
Assay in all cases: DTP human tumour cell line panel, 48 h
[1] = tested on: 786-0 renal
[2] = tested on: A498 renal
[3] = tested on: A549 NSCLC
[4] = tested on: ACHN renal
[5] = tested on: BT-549 breast
[6] = tested on: CAKI-1 renal
[7] = tested on: CCRF-CEM leukemia
[8] = tested on: COLO 205 colon
[9] = tested on: DU-145 prostate
[10] = tested on: EKVX NSCLC
[11] = tested on: HCC-2998 colon
[12] = tested on: HCT-116 colon
[13] = tested on: HCT-15 colon
[14] = tested on: HL-60(TB) leukemia
[15] = tested on: HOP-62 NSCLC
[16] = tested on: HOP-92 NSCLC
[17] = tested on: HS 578T breast
[18] = tested on: HT29 colon
[19] = tested on: IGROV1 ovarian
[20] = tested on: K-562 leukemia
[21] = tested on: KM12 colon
[22] = tested on: LOX IMVI melanoma
[23] = tested on: M14 melanoma
[24] = tested on: MALME-3M melanoma
[25] = tested on: MCF7 breast
[26] = tested on: MDA-MB-231 breast
[27] = tested on: MDA-MB-435
[28] = tested on: MDA-MB-468 breast
[29] = tested on: MOLT-4 leukemia
[30] = tested on: NCI-H226 lung
[31] = tested on: NCI-H23 lung
[32] = tested on: NCI-H460 lung
[33] = tested on: NCI-H522 lung
[34] = tested on: NCI/ADR-RES ovarian
[35] = tested on: OVCAR-3 ovarian
[36] = tested on: OVCAR-4 ovarian
[37] = tested on: OVCAR-5 ovarian
[38] = tested on: OVCAR-8 ovarian
[39] = tested on: PC-3 prostate
[40] = tested on: RPMI-8226 leukemia
[41] = tested on: RXF 393 renal
[42] = tested on: SF-268 CNS
[43] = tested on: SF-295 CNS
[44] = tested on: SF-539 CNS
[45] = tested on: SK-MEL-2 melanoma
[46] = tested on: SK-MEL-28 melanoma
[47] = tested on: SK-MEL-5 melanoma
[48] = tested on: SK-OV-3 ovarian
[49] = tested on: SN12C renal
[50] = tested on: SNB-19 CNS
[51] = tested on: SNB-75 CNS
[52] = tested on: SR leukemia
[53] = tested on: SW-620 colon
[54] = tested on: T-47D breast
[55] = tested on: TK-10 renal
[56] = tested on: U251 CNS
[57] = tested on: UACC-257 melanoma
[58] = tested on: UACC-62 melanoma
[59] = tested on: UO-31 renal

## CC[C@]12C=CCN3CC[C@]4(C(=C(C(=O)OC)C1)Nc1cc(OC)c([C@@H]5[C@H]6O[C@H]6[C@@]6(CC)CC(C(=O)OC)=C7Nc8cc(O)ccc8[C@@]78CCN5[C@@H]68)cc14)[C@@H]32
[1]
  GI50: 5.71 µM
  TGI: 49.4 µM
[2]
  GI50: 13.1 µM
  TGI: 40 µM
[3]
  GI50: 4.56 µM
  TGI: > 56.5 µM
[4]
  GI50: 6.67 µM
  TGI: 20.3 µM
[5]
  GI50: 6.27 µM
  TGI: 18.9 µM
[6]
  GI50: 4 µM
  TGI: 50.1 µM
[7]
  GI50: 2.19 µM
  TGI: > 56.5 µM
[8]
  GI50: 10.4 µM
  TGI: 24 µM
[9]
  GI50: 12.3 µM
  TGI: 50 µM
[10]
  GI50: 3.7 µM
  TGI: 31.7 µM
[11]
  GI50: 3.32 µM
  TGI: 10.9 µM
[12]
  GI50: 2.17 µM
  TGI: 12.6 µM
[13]
  GI50: 2.91 µM
  TGI: 11.4 µM
[14]
  GI50: 1.78 µM
  TGI: 8.34 µM
[15]
  GI50: 12.9 µM
  TGI: 27.5 µM
[16]
  GI50: 5.99 µM
  TGI: 14.3 µM
[17]
  GI50: 11.7 µM
  TGI: > 56.5 µM
[18]
  GI50: 6.12 µM
  TGI: 18.9 µM
[19]
  GI50: 8.95 µM
  TGI: 25 µM
[20]
  GI50: 1.91 µM
  TGI: 12.4 µM
[21]
  GI50: 3.27 µM
  TGI: 14.9 µM
[22]
  GI50: 3.11 µM
  TGI: 10.5 µM
[23]
  GI50: 2.91 µM
  TGI: 16.3 µM
[24]
  GI50: 5.97 µM
  TGI: 12.8 µM
[25]
  GI50: 1.73 µM
  TGI: 11.6 µM
[26]
  GI50: 6.8 µM
  TGI: 13.9 µM
[27]
  GI50: 3.71 µM
  TGI: 14.2 µM
[28]
  GI50: 1.11 µM
  TGI: 7.28 µM
[29]
  GI50: 1.34 µM
  TGI: 6.82 µM
[30]
  GI50: 5.95 µM
  TGI: 15 µM
[31]
  GI50: 6.13 µM
  TGI: 18.8 µM
[32]
  GI50: 2.87 µM
  TGI: 10.9 µM
[33]
  GI50: 2.41 µM
  TGI: 11.6 µM
[34]
  GI50: 7.86 µM
  TGI: 26.8 µM
[35]
  GI50: 3.92 µM
  TGI: 12.1 µM
[36]
  GI50: 5.68 µM
  TGI: > 56.5 µM
[37]
  GI50: 10.5 µM
  TGI: 27.5 µM
[38]
  GI50: 12.4 µM
  TGI: > 56.5 µM
[39]
  GI50: 1.99 µM
  TGI: 16.7 µM
[40]
  GI50: 1.53 µM
  TGI: > 56.5 µM
[41]
  GI50: 2.6 µM
  TGI: 12.5 µM
[42]
  GI50: 5.6 µM
  TGI: 43.5 µM
[43]
  GI50: 5 µM
  TGI: 15.3 µM
[44]
  GI50: 10.8 µM
  TGI: 27.4 µM
[45]
  GI50: 8.75 µM
  TGI: 19.8 µM
[46]
  GI50: 7.57 µM
  TGI: 24.5 µM
[47]
  GI50: 3.66 µM
  TGI: 11.4 µM
[48]
  GI50: 17.7 µM
  TGI: > 56.5 µM
[49]
  GI50: 6.01 µM
  TGI: 15.3 µM
[50]
  GI50: 14.6 µM
  TGI: > 56.5 µM
[51]
  GI50: 2.95 µM
  TGI: > 56.5 µM
[52]
  GI50: 2.18 µM
  TGI: 21.7 µM
[53]
  GI50: 5.67 µM
  TGI: 14.6 µM
[54]
  GI50: 1.9 µM
  TGI: 23.8 µM
[55]
  GI50: 21.2 µM
  TGI: > 56.5 µM
[56]
  GI50: 4.33 µM
  TGI: 14.6 µM
[57]
  GI50: 4.3 µM
  TGI: 15.5 µM
[58]
  GI50: 3.27 µM
  TGI: 11.6 µM
[59]
  GI50: 4.31 µM
  TGI: 13.8 µM
